Experimental findings from patent US20240165129A1, “METHODS OF TREATING PAIN AND DEPRESSION” (priority 2022, published 2024) are described below.

The structures appear in SMILES notation.

For the experiment, the target named is T1, heteromeric ASIC1a/2a channels (UniProt P78348+Q62962).
T1 sequence (P78348 1-528): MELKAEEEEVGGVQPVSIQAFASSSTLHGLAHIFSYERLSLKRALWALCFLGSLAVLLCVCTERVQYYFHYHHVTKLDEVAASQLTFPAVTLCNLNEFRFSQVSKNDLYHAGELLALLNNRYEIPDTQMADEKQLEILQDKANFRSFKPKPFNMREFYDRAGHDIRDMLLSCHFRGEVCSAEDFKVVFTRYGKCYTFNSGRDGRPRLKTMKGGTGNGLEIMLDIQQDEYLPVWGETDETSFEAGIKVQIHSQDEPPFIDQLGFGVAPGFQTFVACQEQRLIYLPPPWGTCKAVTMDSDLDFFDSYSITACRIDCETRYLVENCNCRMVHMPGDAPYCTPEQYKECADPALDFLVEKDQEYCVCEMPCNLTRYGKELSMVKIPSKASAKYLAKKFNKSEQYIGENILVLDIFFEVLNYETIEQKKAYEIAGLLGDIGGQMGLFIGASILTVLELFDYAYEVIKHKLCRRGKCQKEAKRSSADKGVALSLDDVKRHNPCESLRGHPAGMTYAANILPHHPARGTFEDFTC
T1 sequence (Q62962 1-512): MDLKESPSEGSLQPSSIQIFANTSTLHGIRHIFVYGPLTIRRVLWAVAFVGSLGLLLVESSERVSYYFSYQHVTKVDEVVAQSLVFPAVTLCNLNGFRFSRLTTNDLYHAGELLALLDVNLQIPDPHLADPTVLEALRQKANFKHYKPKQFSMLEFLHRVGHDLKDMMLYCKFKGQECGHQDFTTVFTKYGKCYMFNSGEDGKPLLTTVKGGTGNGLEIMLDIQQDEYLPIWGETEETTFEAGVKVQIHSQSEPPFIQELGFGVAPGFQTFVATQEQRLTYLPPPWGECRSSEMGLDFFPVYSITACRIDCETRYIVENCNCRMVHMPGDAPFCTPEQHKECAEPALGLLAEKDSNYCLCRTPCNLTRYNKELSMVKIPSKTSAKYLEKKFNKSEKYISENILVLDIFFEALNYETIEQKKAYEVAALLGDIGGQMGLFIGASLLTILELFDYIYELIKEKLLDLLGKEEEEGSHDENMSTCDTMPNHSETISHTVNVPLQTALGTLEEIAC
The following applies: Triol 10 μM, PcTx-1 insensitive cells, pH 6.0, n=4.

Procedure: ASIC currents were recorded using patch-clamp techniques. Pipette solution contained (mM): 140 CsF, 1 CaCl2, 2 MgCl2, 11 EGTA, 2 tetraethylammonium chloride, 10 HEPES and 4 MgATP, pH 7.3 adjusted with CsOH, 290-300 mOsm. Extracellular Fluid (ECF) contained (mM): 140 NaCl, 5.4 KCl, 2 CaCl2, 1 MgCl2, 10 glucose, and 10 HEPES (320-330 mOsm). A multi-barrel perfusion system (SF-77 Warner Instruments, Hamden, CT) was used to obtain a rapid exchange of ECFs. Currents were recorded with Axopatch 200B amplifier, filtered at 2 kHz, and digitized at 5 kHz using Digidata 1332A. ASIC currents were induced by rapid perfusion of the cells with acidic ECF for 4 seconds. Unless otherwise stated, cells were clamped at a holding potential of −60 mV. […] Data were excluded for statistical analysis when access resistance was >10 MΩ or leak current was >100 pA.
Only the GFP-positive cells were recorded. The GFP-positive CHO-1a cells may express a mix of homomeric ASIC1a, ASIC2a, or heteromeric ASIC1a/2a channels. Since homomeric ASIC2a channels are not activated at pH 6.0 37, the ASIC currents activated at pH 6.0 might be due to the activation of ASIC1a or ASIC1a/2a channels.

With `CC(C)CCC[C@@H](C)[C@H]1CC[C@H]2[C@@H]3C[C@@H](O)[C@@]4(O)C[C@@H](O)CC[C@]4(C)[C@H]3CC[C@]12C` [Triol, cholestane-3β, 5α, 6β-triol], the “effect on PcTx-1 insensitive ASIC currents” value is reported as “inhibited these currents”.
